Assay: Sonication of magnesium oxide nanopowder with different ligands (functionalization, dispersion)
Format: physicochemical
Procedure: Different capping ligands were selected for the functionalization of magnesium oxide nanoparticles (see FIG. 5). This method is applicable to ligands whose anchoring groups forms stable magnesium complexes such as catecholates, salicylates, phosphates and phosphonates. Even if the affinity of each individual group for the particle surface is low, the multiplicity of anchoring groups provides a strong adsorption. For example, poly-aspartic and poly-glutamic acids were tested for the functionalization of magnesium oxide nanoparticles. In this procedure, the capping ligands were sonicated with the nanoparticles until a complete dispersion was obtained. The stability of the dispersion was evaluated by the absorption spectra of the obtained mixture.
As a starting point for the optimization of the procedure, the magnesium oxide nanoparticles (200 mg) were dispersed in 25 mL of 1% capping agent with continuous stirring at different times. The concentration of nanoparticles and capping agent in the dispersion mixture together with the incubation temperature was optimized to increase the stability of the dispersed nanoparticles. The excess of capping agent was removed by centrifugation and washing with water. […]

Row | dispersion of magnesium oxide nanomaterial with ligand (preliminary results, FIG. 7) | SMILES | effect of ligand on magnesium oxide nanomaterial on sonication (magnesium oxide nanopowder sonicated in the presence of the ligand)
1 |  | NCCP(=O)(O)O [2-aminoethylphosphonic acid] | dissolved the nanomaterial
2 | good results | NCCCC(O)(P(=O)(O)O)P(=O)(O)O [alendronate] | 

— patent US20240024240A1 (priority 2020, published 2024)
